The results in this text go back to patent US5017596A, “Arylpyrazolylcarbinol compounds with analgesic activity” (Laboratorios del Dr. Esteve, S.A., priority 1987, dated 1991).

Format in all cases: in vivo, Swiss male mice
Assay [1] has as its system contortions induced by acetic acid in mice. The assay is described as follows: Analgesic activity: inhibition of the contortions induced by acetic acid in mice (Koster's method). Conditions: Mus musculus, po; 160 mg/kg, administered orally 60 minutes before acetic acid i.p.; contortions counted for 15 minutes; read-out: % inhibition of contortions. The procedure:
Swiss male mice weighing 17-22 grams are used. Groups containing a minimum of 4 animals for each dose are used.
Each product is suspended or dissolved in gum arabic at a concentration of 5% (w/v) in distilled water and is administered orally, at a dose of 160 mg/kg, 60 minutes before the injection of acetic acid.

In assay [2] the test system is contortions induced by acetylcholine bromide in mice. Briefly: Analgesic activity: inhibition of the contortions induced by acetylcholine bromide in mice (Collier's method). Conditions: Mus musculus, po; 160 mg/kg, administered orally; acetylcholine bromide 7.2 mg/kg i.p.; mean of the values at 40 and 120 minutes; read-out: % inhibition of contortions. On the procedure:
(§1) Swiss male mice weighing 17-22 grams are used. Groups containing a minimum of 4 animals are used.
Contortions are induced by the intraperitoneal injection of acetylcholine bromide (7.2 mg/kg, dissolved in physiological serum, a volume of 10 ml/kg of weight being administered) at the start of the experiment and the number of contortions is counted for 5 minutes, this being the reference number for each animal (mice with fewer than 2 contortions are rejected). Immediately afterwards, the test products are administered orally, at a dose of 160 mg/kg, in the form of a suspension or solution in gum arabic at a concentration of 5% (w/v) in distilled water. 40 and 120 minutes after the treatment, acetylcholine bromide is administered again, the contortions are noted and the readings at 40 and 120 minutes are evaluated, taking the contortions of the initial reading as the reference.

For assay [3], the system named is contortions induced by phenylbenzoquinone in mice. Briefly: Analgesic activity: inhibition of the contortions induced by phenylbenzoquinone in mice (Siegmund's method). Conditions: Mus musculus, po; 160 mg/kg, administered orally 60 minutes before phenylbenzoquinone i.p.; contortions counted for 15 minutes; read-out: % inhibition of contortions. On the procedure: Analgesic activity: Inhibition of the contortions induced by phenylbenzoquinone in mice--Siegmund's method (E. Siegmund, R. Cadmus and G. Lu, Proc Soc. Exp. Biol. Med., 95, 729 (1957))
as §1
Contortions are induced by the intraperitoneal injection of phenyl-p-benzoquinone (25 ml/kg of a 0.02% solution in a solution of ethanol at a concentration of 5% (v/v) in distilled water, with Evans blue in a proportion of 0.1% (w/v)) and are counted for 15 minutes as from the time of injection. Each product is suspended or dissolved in gum arabic at a concentration of 5% (w/v) in distilled water and is administered orally, at a dose of 160 mg/kg, 60 minutes before the injection of phenylbenzoquinone. The inhibition of contortions due to each product is determined, taking as the reference the contortions in a group of control animals to which only the vehicle is administered orally 60 minutes before the phenylbenzoquinone.

`CN1CCOC(c2ccccc2)c2ccccc2C1` (stereo not drawn) [Nefopam, reference compound]: the inhibition in vivo at 160 mg/kg in assay [1] came to 98%; in assay [2], 100%; in assay [3], 97.5%.

As for `Cn1ccnc1C(C)(O)c1cccc(C(F)(F)F)c1` (stereo not drawn) [Example 128], the inhibition in vivo at 160 mg/kg in assay [1] is 52.5%; in assay [2], 82.5%; in assay [3], 67.5%.
